# Assay results reported in PubChem BioAssay AID1259407 (Chemical Carcinogenesis Research Information System (CCRIS), 2018).
# The source made the active and inactive calls. The rule behind the calls is not given here.
# Tested on: CCRIS mutagenicity, Ames/micronucleus/aberration tests
# Test: CCRIS mutagenicity studies
# [1] = Test System: AMES SALMONELLA TYPHIMURIUM, Strain/Indicator: TA98, Metabolic Activation: NONE, Method: STANDARD PLATE
# [2] = Test System: AMES SALMONELLA TYPHIMURIUM, Strain/Indicator: TA98, Metabolic Activation: RAT, LIVER, S-9, AROCLOR 1254, Method: STANDARD PLATE
# [3] = Test System: AMES SALMONELLA TYPHIMURIUM, Strain/Indicator: TA100, Metabolic Activation: NONE, Method: STANDARD PLATE
# [4] = Test System: AMES SALMONELLA TYPHIMURIUM, Strain/Indicator: TA100, Metabolic Activation: RAT, LIVER, S-9, AROCLOR 1254, Method: STANDARD PLATE
# [5] = Test System: AMES SALMONELLA TYPHIMURIUM, Strain/Indicator: TA1535, Metabolic Activation: NONE, Method: STANDARD PLATE
# [6] = Test System: AMES SALMONELLA TYPHIMURIUM, Strain/Indicator: TA98, Metabolic Activation: S-9, Method: STANDARD PLATE
# [7] = Test System: AMES SALMONELLA TYPHIMURIUM, Strain/Indicator: TA100, Metabolic Activation: S-9, Method: STANDARD PLATE
compound,measurement,setting,value
CCCCN(CCCCO)N=O,mutagenic call,"Test System: AMES SALMONELLA TYPHIMURIUM, Strain/Indicator: TA1535, Metabolic Activation: NONE, Method: PREINCUBATION",inactive; negative
same,mutagenic call,"Test System: AMES SALMONELLA TYPHIMURIUM, Strain/Indicator: TA1535, Metabolic Activation: RAT, LIVER, HEPATOCYTES, Method: PREINCUBATION",inactive; negative
same,mutagenic call,"Test System: AMES SALMONELLA TYPHIMURIUM, Strain/Indicator: TA1535, Metabolic Activation: RAT, LIVER, S-9, AROCLOR, Method: PREINCUBATION",active; positive
same,mutagenic call,"Test System: AMES SALMONELLA TYPHIMURIUM, Strain/Indicator: TA1535, Metabolic Activation: RAT, LIVER, S-9, KC500 OR PHENOBARBITAL, Method: LIQUID SUSPENSION",active; positive
same,mutagenic call,"Test System: AMES SALMONELLA TYPHIMURIUM, Strain/Indicator: TA1535, Metabolic Activation: RAT, LIVER, S-9, SODIUM PHENOBARBITONE, Method: PREINCUBATION",active; positive
same,mutagenic call,"Test System: AMES SALMONELLA TYPHIMURIUM, Strain/Indicator: TA1535, Metabolic Activation: RAT, LIVER, S-9, Method: PREINCUBATION",inactive; negative
CNC(=O)Nc1ccccc1,mutagenic call,[1],inactive; negative
same,mutagenic call,[2],inactive; negative
same,mutagenic call,[3],inactive; negative
same,mutagenic call,[4],inactive; negative
same,mutagenic call,[5],inactive; negative
same,mutagenic call,"Test System: AMES SALMONELLA TYPHIMURIUM, Strain/Indicator: TA1535, Metabolic Activation: RAT, LIVER, S-9, AROCLOR 1254, Method: STANDARD PLATE",inactive; negative
same,mutagenic call,"Test System: AMES SALMONELLA TYPHIMURIUM, Strain/Indicator: TA1537, Metabolic Activation: NONE, Method: STANDARD PLATE",inactive; negative
same,mutagenic call,"Test System: AMES SALMONELLA TYPHIMURIUM, Strain/Indicator: TA1537, Metabolic Activation: RAT, LIVER, S-9, AROCLOR 1254, Method: STANDARD PLATE",inactive; negative
same,mutagenic call,"Test System: AMES SALMONELLA TYPHIMURIUM, Strain/Indicator: TA1538, Metabolic Activation: NONE, Method: STANDARD PLATE",inactive; negative
same,mutagenic call,"Test System: AMES SALMONELLA TYPHIMURIUM, Strain/Indicator: TA1538, Metabolic Activation: RAT, LIVER, S-9, AROCLOR 1254, Method: STANDARD PLATE",inactive; negative
CC1=C(C(=O)Nc2ccccc2)SCCO1,mutagenic call,"Test System: AMES SALMONELLA TYPHIMURIUM, Strain/Indicator: TA97A, Metabolic Activation: NONE, Method: STANDARD PLATE",inactive; negative
same,mutagenic call,"Test System: AMES SALMONELLA TYPHIMURIUM, Strain/Indicator: TA97A, Metabolic Activation: PLANT, HOMOGENATE, S-14, Method: STANDARD PLATE",inactive; negative
same,mutagenic call,"Test System: AMES SALMONELLA TYPHIMURIUM, Strain/Indicator: TA97A, Metabolic Activation: S-9, Method: STANDARD PLATE",inactive; negative
same,mutagenic call,[1],inactive; negative
same,mutagenic call,"Test System: AMES SALMONELLA TYPHIMURIUM, Strain/Indicator: TA98, Metabolic Activation: PLANT, HOMOGENATE, S-14, Method: STANDARD PLATE",inactive; negative
same,mutagenic call,[6],inactive; negative
same,mutagenic call,[3],inactive; negative
same,mutagenic call,"Test System: AMES SALMONELLA TYPHIMURIUM, Strain/Indicator: TA100, Metabolic Activation: PLANT, HOMOGENATE, S-14, Method: STANDARD PLATE",inactive; negative
same,mutagenic call,[7],inactive; negative
same,mutagenic call,[5],inactive; negative
same,mutagenic call,"Test System: AMES SALMONELLA TYPHIMURIUM, Strain/Indicator: TA1535, Metabolic Activation: PLANT, HOMOGENATE, S-14, Method: STANDARD PLATE",inactive; negative
same,mutagenic call,"Test System: AMES SALMONELLA TYPHIMURIUM, Strain/Indicator: TA1535, Metabolic Activation: S-9, Method: STANDARD PLATE",inactive; negative
Cc1cc(C(C)(C)C)c(O)c(C(C)(C)C)c1,mutagenic call,"End Point: IN VITRO CHROMOSOMAL ABERRATIONS, Test System: CHINESE HAMSTER OVARY CELLS, Metabolic Activation: NONE",inactive; negative
same,mutagenic call,"End Point: IN VITRO CHROMOSOMAL ABERRATIONS, Test System: CHINESE HAMSTER OVARY CELLS, Metabolic Activation: RAT, LIVER, S-9, AROCLOR 1254",inactive; negative; dose-related increase but it was not significant
same,mutagenic call,"Test System: AMES SALMONELLA TYPHIMURIUM, Strain/Indicator: TA97, Metabolic Activation: NONE, Method: STANDARD PLATE",inactive; negative
same,mutagenic call,"Test System: AMES SALMONELLA TYPHIMURIUM, Strain/Indicator: TA97, Metabolic Activation: RAT, LIVER, S-9, AROCLOR 1254, Method: STANDARD PLATE",inactive; negative
same,mutagenic call,"Test System: AMES SALMONELLA TYPHIMURIUM, Strain/Indicator: TA97, Metabolic Activation: RAT, LIVER, S-9, AROCLOR, Method: STANDARD PLATE",inactive; negative
same,mutagenic call,"Test System: AMES SALMONELLA TYPHIMURIUM, Strain/Indicator: TA98, Metabolic Activation: NONE, Method: PREINCUBATION",inactive; negative
same,mutagenic call,[1],inactive; negative
same,mutagenic call,[2],inactive; negative
same,mutagenic call,"Test System: AMES SALMONELLA TYPHIMURIUM, Strain/Indicator: TA98, Metabolic Activation: RAT, LIVER, S-9, Method: PREINCUBATION",inactive; negative
same,mutagenic call,[6],inactive; negative
same,mutagenic call,"Test System: AMES SALMONELLA TYPHIMURIUM, Strain/Indicator: TA100, Metabolic Activation: NONE, Method: PREINCUBATION",inactive; negative
same,mutagenic call,[3],inactive; negative
same,mutagenic call,[4],inactive; negative
same,mutagenic call,"Test System: AMES SALMONELLA TYPHIMURIUM, Strain/Indicator: TA100, Metabolic Activation: RAT, LIVER, S-9, AROCLOR, Method: STANDARD PLATE",inactive; negative
same,mutagenic call,"Test System: AMES SALMONELLA TYPHIMURIUM, Strain/Indicator: TA100, Metabolic Activation: RAT, LIVER, S-9, Method: PREINCUBATION",inactive; negative
same,mutagenic call,[7],inactive; negative
same,mutagenic call,"Test System: AMES SALMONELLA TYPHIMURIUM, Strain/Indicator: TA102, Metabolic Activation: NONE, Method: STANDARD PLATE",inactive; negative
same,mutagenic call,"Test System: AMES SALMONELLA TYPHIMURIUM, Strain/Indicator: TA102, Metabolic Activation: RAT LIVER S-9, PHENOBARBITAL AND 5,6-BENZOFLAVONE, Method: STANDARD PLATE",inactive; negative
same,mutagenic call,"Test System: AMES SALMONELLA TYPHIMURIUM, Strain/Indicator: TA102, Metabolic Activation: RAT, LIVER, S-9, AROCLOR, Method: STANDARD PLATE",inactive; negative
same,mutagenic call,"Test System: AMES SALMONELLA TYPHIMURIUM, Strain/Indicator: TA104, Metabolic Activation: NONE, Method: PREINCUBATION",inactive; negative
same,mutagenic call,"Test System: AMES SALMONELLA TYPHIMURIUM, Strain/Indicator: TA104, Metabolic Activation: NONE, Method: STANDARD PLATE",inactive; negative
same,mutagenic call,"Test System: AMES SALMONELLA TYPHIMURIUM, Strain/Indicator: TA104, Metabolic Activation: RAT, LIVER, S-9, AROCLOR, Method: PREINCUBATION",inactive; negative
same,mutagenic call,"Test System: AMES SALMONELLA TYPHIMURIUM, Strain/Indicator: TA104, Metabolic Activation: RAT, LIVER, S-9, AROCLOR, Method: STANDARD PLATE",inactive; negative
same,mutagenic call,"Test System: AMES SALMONELLA TYPHIMURIUM, Strain/Indicator: TA2638, Metabolic Activation: RAT LIVER S-9, PHENOBARBITAL AND 5,6-BENZOFLAVONE, Method: STANDARD PLATE",inactive; negative
same,mutagenic call,"Test System: E. COLI, Strain/Indicator: WP2 (PKM101), Metabolic Activation: RAT LIVER S-9, PHENOBARBITAL AND 5,6-BENZOFLAVONE, Method: STANDARD PLATE",inactive; negative
same,mutagenic call,"Test System: E.COLI, Strain/Indicator: WP2 UVRA (PKM101), Metabolic Activation: RAT LIVER S-9, PHENOBARBITAL AND 5,6-BENZOFLAVONE, Method: STANDARD PLATE",inactive; negative
Cn1c(N)nc2c3nc(-c4ccccc4)c(-c4ccccc4)nc3ccc21,mutagenic call,[2],inactive; negative
Fc1ccc2cccnc2c1,mutagenic call,"Test System: AMES SALMONELLA TYPHIMURIUM, Strain/Indicator: TA100, Metabolic Activation: RAT LIVER S-9, PHENOBARBITAL AND 5,6-BENZOFLAVONE, Method: PREINCUBATION",active; positive
same,mutagenic call,"Test System: AMES SALMONELLA TYPHIMURIUM, Strain/Indicator: TA100, Metabolic Activation: RAT, LIVER, S-9, AROCLOR 1254, Method: PREINCUBATION",active; positive
same,mutagenic call,"Test System: UDS RODENT HEPATOCYTES, Strain/Indicator: THY INCORP (NON-S-PHASE), Metabolic Activation: NONE, Method: AUTORADIOGRAPHY",active; positive
CCCCOc1c(C(=O)NOC(C)=O)ccc2ccccc12,mutagenic call,[3],active; positive
same,mutagenic call,"Test System: AMES SALMONELLA TYPHIMURIUM, Strain/Indicator: TA100, Metabolic Activation: RAT, S-9, AROCLOR, Method: STANDARD PLATE",active; positive
